{"source": "paper PMC9866218", "about": "“Characterization and Chemical Synthesis of Cm39 (α-KTx 4.8): A Scorpion Toxin That Inhibits Voltage-Gated K^+ Channel KV1.2 and Small- and Intermediate-Conductance Ca^2+-Activated K^+ Channels KCa2.2 and KCa3.1” (Toxins, 2023)", "key": {"hNaV1.5": {"system": "hNaV1.5", "assay": "Whole-cell patch-clamp, block of NaV1.5 current", "format": "cell-based, human", "details": "CHO cells", "description": "We, therefore, aimed at testing the pharmacological activity of sCm39 on a battery of various potassium and sodium ion channels. Among the tested channels were six members of human voltage-gated K^+ (hKV) channels from Shaker family, hKV1.1-hKV1.6 (Figure 3A–F) and three members of Ca^2+-activated potassium channel; hKCa2.2 (SK2, Figure 3I), the small-conductance Ca^2+-activated channel; hKCa3.1 (IKCa1, SK4. Figure 3J), the intermediate-conductance Ca^2+-activated channel expressed in T lymphocytes; and mKCa1.1 (BK, Slo1, MaxiK, Figure 3H), the large-conductance voltage- and Ca^2+-activated channel of mice. In addition, we also screened the effect of Cm39 on hKV11.1 (hERG1, Figure 3G), a voltage-gated cardiac K^+ channel, and two human voltage-gated sodium (hNaV) channels, hNaV1.4 (Figure 3K) and hNaV1.5 (Figure 3L), expressed in skeletal and cardiac muscles, respectively. These ion channels were heterologously expressed in the CHO or HEK cell lines except for KV1.3. Human peripheral T lymphocytes. They were stimulated with Phytohemagglutinin A (PHA) to increase the KV1.3 channel expression, and Ca^2+-free intracellular solution was used to avoid KCa3.1 channel activation. […]\nThose plasmids which lack a fluorescent tag were co-transfected with a plasmid encoding GFP. […] Generally, currents were recorded 24 to 48 h post transfection. […]"}, "hKCa3.1": {"target": "T1, hKCa3.1 (Homo sapiens, UniProt O15554)", "T1 construct": "EGFP (vector pEGFP-C1); expressed in transfected cells; host or cells: CHO cells, transient transfection", "T1 sequence (O15554 whole entry)": "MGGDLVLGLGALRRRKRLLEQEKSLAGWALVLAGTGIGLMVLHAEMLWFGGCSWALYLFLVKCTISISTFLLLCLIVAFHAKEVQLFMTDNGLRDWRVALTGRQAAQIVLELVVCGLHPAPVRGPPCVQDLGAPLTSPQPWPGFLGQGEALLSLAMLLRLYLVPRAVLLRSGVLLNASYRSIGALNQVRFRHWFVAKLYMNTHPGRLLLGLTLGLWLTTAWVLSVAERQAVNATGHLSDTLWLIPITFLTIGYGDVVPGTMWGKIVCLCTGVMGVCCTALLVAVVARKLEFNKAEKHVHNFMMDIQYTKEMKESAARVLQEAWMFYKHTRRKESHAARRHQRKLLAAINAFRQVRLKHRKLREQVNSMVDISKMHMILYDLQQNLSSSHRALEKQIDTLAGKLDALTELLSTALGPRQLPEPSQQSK", "assay": "Whole-cell patch-clamp, block of KCa3.1 current", "format": "cell-based", "description": "We, therefore, aimed at testing the pharmacological activity of sCm39 on a battery of various potassium and sodium ion channels. Among the tested channels were six members of human voltage-gated K^+ (hKV) channels from Shaker family, hKV1.1-hKV1.6 (Figure 3A–F) and three members of Ca^2+-activated potassium channel; hKCa2.2 (SK2, Figure 3I), the small-conductance Ca^2+-activated channel; hKCa3.1 (IKCa1, SK4. Figure 3J), the intermediate-conductance Ca^2+-activated channel expressed in T lymphocytes; and mKCa1.1 (BK, Slo1, MaxiK, Figure 3H), the large-conductance voltage- and Ca^2+-activated channel of mice. In addition, we also screened the effect of Cm39 on hKV11.1 (hERG1, Figure 3G), a voltage-gated cardiac K^+ channel, and two human voltage-gated sodium (hNaV) channels, hNaV1.4 (Figure 3K) and hNaV1.5 (Figure 3L), expressed in skeletal and cardiac muscles, respectively. These ion channels were heterologously expressed in the CHO or HEK cell lines except for KV1.3. Human peripheral T lymphocytes. They were stimulated with Phytohemagglutinin A (PHA) to increase the KV1.3 channel expression, and Ca^2+-free intracellular solution was used to avoid KCa3.1 channel activation. Appropriate depolarization protocols were used to record ionic currents in voltage-clamped cells (see Figure 3 insets and Material and Methods for details). Freshly dissolved sCm39 in extracellular solution was applied at 1 µM concentration on the cell using a custom-built micro-perfusion system at ~200 µL/min flow rate.\nThe whole-cell K^+ currents of CHO cells transiently expressing KCa2.2 or KCa3.1 channels were recorded sequentially by applying the 150 ms long voltage ramp to +50 mV from Vh of −120 mV every 10 s in the presence of control solution or upon perfusing the cell with different concentrations of sCm39. Normalized peak currents were calculated and plotted as function of time as shown in Figure 5A for KCa2.2 and in Figure 5C for KCa3.1 in the presence of the toxin at various concentrations and upon wash-out. […] RCF values were determined at equilibrium block in the presence of various concentrations of sCm39 and fitted with the Hill equation (see Materials and Methods for details).\nChinese hamster ovary (CHO) cells (gift from Yosef Yarden, Weizmann Institute of Science, Rehovot, Israel) were maintained by culturing in Dulbecco’s modified Eagle medium (DMEM, Gibco) supplemented with 2 mM L-glutamine, 10% FBS, 100 µg/mL streptomycin and 100 U/mL penicillin-g (Sigma-Aldrich) at a density of 0. 5−1×10^6 cells per mL in a humidified incubator at 37 °C and 5% CO2. Cells were passaged 3 times in a week following a 2–5 min incubation in 0.05% trypsin-EDTA solution at 37 °C. Cultures were used up to passage number 20. PCR-based tests were routinely used to detect mycoplasma infection, only mycoplasma-free cultures were used for experiments.\nThose plasmids which lack a fluorescent tag were co-transfected with a plasmid encoding GFP. Transfections were performed at a GFP:channel DNA molar ratio of 1:10 using the Lipofectamine 2000 kit (Invitrogen) according to the manufacturer’s protocol. […] Generally, currents were recorded 24 to 48 h post transfection.\nFor the measurement of KV1.x, mKCa1.1 and NaV1.x currents the extracellular solution was composed of (in mM) 145 NaCl, 5 KCl, 2.5 CaCl2, 1 MgCl2, 10 HEPES and 5.5 glucose, pH 7.35."}}, "note": "“Also recorded” adds a separate entry of the source.", "data": [{"smiles": "CC[C@H](C)[C@@H]1NC(=O)[C@H](C)NC(=O)[C@H](C)NC(=O)[C@H](CCCCN)NC(=O)[C@@H]2CSSC[C@@H](C(=O)N[C@@H](Cc3ccc(O)cc3)C(=O)N[C@@H](Cc3ccc(O)cc3)C(=O)O)NC(=O)[C@H](CCCCN)NC(=O)[C@@H]3CSSC[C@H](NC(=O)[C@H](CCC(=O)O)NC(=O)[C@H](CO)NC(=O)[C@H](CO)NC(=O)[C@H](CO)NC(=O)[C@H](CCCCN)NC(=O)[C@@H](NC(=O)[C@H](CCCCN)NC(=O)[C@H](Cc4c[nH]cn4)NC(=O)[C@H](CC(N)=O)NC(=O)[C@@H](NC(=O)[C@H](Cc4ccccc4)NC(=O)[C@@H](N)[C@@H](C)O)[C@@H](C)CC)CSSC[C@H](NC(=O)[C@H](CCCCN)NC(=O)CNC(=O)[C@H](CO)NC(=O)[C@H](C)NC(=O)[C@H](CCCNC(=N)N)NC(=O)CNC1=O)C(=O)N[C@@H]([C@@H](C)CC)C(=O)N[C@@H](CC(N)=O)C(=O)N[C@@H](CO)C(=O)N[C@@H]([C@@H](C)O)C(=O)N3)C(=O)N[C@@H](CC(C)C)C(=O)N1CCC[C@H]1C(=O)N[C@@H](C)C(=O)N2", "note": "[Cm39]", "values": [{"measurement": "inhibition (in words)", "setting": "hNaV1.5; 1 μM", "value": "does not inhibit; also recorded: did not show any effect"}, {"measurement": "decrease in current", "setting": "hNaV1.5; 1 µM, 3−5 min, n = 3−5", "value": "< 3", "unit": "%"}, {"measurement": "reduction of current at equilibrium block", "setting": "hKCa3.1; 1 µM, CHO cells, current at +48 mV, n = 3−5 (Figure 3M)", "value": 86, "unit": "%"}, {"measurement": "toxin association and dissociation kinetics", "setting": "hKCa3.1; CHO cells", "value": "fast"}, {"measurement": "toxin association and dissociation kinetics", "setting": "hKCa3.1; CHO cells, listed as sCm39", "value": "very fast"}, {"measurement": "Hill coefficient (H)", "setting": "hKCa3.1; concentration-response of KCa3.1 block, CHO cells", "value": 0.68}, {"measurement": "development and almost full recovery from equilibrium block", "setting": "hKCa3.1; pulses separated by 10 s", "value": "1–3 depolarization pulses"}, {"measurement": "reversibility of KCa3.1 block", "setting": "hKCa3.1; wash-out with toxin-free solution", "value": "fully reversible"}]}]}
